Measured values from PubChem BioAssay AID651717 (Broad Institute, 2012).

Each compound was assayed on mESC Bmi1-luciferase reporter, firefly/renilla ratio, 24 h (assay: Bmi1-luciferase reporter activators in mESC, dose response, esBAF inhibitor project, mouse embryonic stem cells, cherry-pick (AID 651717);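 note: luciferase knocked into Bmi1 locus with EF-1a renilla as cell number control; rising ratio signals esBAF inhibition which derepresses Bmi1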).
Compound `Cc1ccc(-c2nnn(CC(=O)N(Cc3cccs3)C(C(=O)NC3CCCC3)c3ccncc3)n2)cc1` (configuration not stated) has an AC40 of 34.5 µM.
Compound `Cc1nc(-c2ccccc2)sc1-c1nnc(C2CC2)o1` has an AC40 of 4.24 µM.
Work on `Cc1cccc(Nc2nc(-c3sc(C)nc3C)cs2)c1` yielded an AC40 of 2.71 µM.
Work on `N#Cc1ccc(C=NN2CCCCCC2)cc1` yielded an AC40 of 2.62 µM.
Work on `CC(=O)N1CC2(CC(c3ccccc3F)=NO2)CN1c1ccc(Cl)cc1` (configuration not stated) yielded an AC40 of 19.9 µM.
`O=C(NCCc1ccccc1)c1ccc(Cl)c(S(=O)(=O)N2CCCC2)c1` showed an AC40 of 8.04 µM.
`O=C(NCc1ccc2c(c1)OCO2)Nc1cccc(Cl)c1` gave an AC40 of 7.4 µM.
`CNC(=O)c1ccc(-c2ccccc2)s1` was tested, and the AC40 was 5.62 µM.
For `CCc1nc(SCc2ccc(Br)cc2)n[nH]1`, the AC40 was 2.5 µM.
`CCCCSc1nnc(-c2c[nH]c3ccccc23)n1C` gave an AC40 of 6.69 µM.
For `Cc1ccc(O)c(CNc2ccccn2)c1`, the AC40 was 16.7 µM.
Compound `Cc1cccc(-n2nnc(C(=O)Nc3ccc(F)cc3)c2N)c1` has an AC40 of 0.798 µM.
In the case of `O=C(Nc1cccc(F)c1)c1c(O)c2ccccc2[nH]c1=O`, the AC40 is reported as 1.29 µM.
With `CCC(=O)c1ccc(N2CCCCCC2)c(F)c1` the AC40 was 4.92 µM.
In the case of `Cc1ccn2c(CC(C)(C)C)c(-c3ccc(F)cc3)nc2c1`, the AC40 is reported as 1.38 µM.
Compound `C=CCn1cccc(C(=O)Nc2ccc(F)cc2)c1=O` has an AC40 of 7.32 µM.
Work on `C(=Cc1cnnc2ccccc12)c1ccccc1` yielded an AC40 of 1.23 µM.
`O=C(c1ccc2ccccc2c1)N1CCN(Cc2ccccc2)CC1` was tested, and the AC40 was 9.83 µM.
`COc1ccc(Nc2ccc3ccccc3c2)cc1` gave an AC40 of 1.13 µM.
Work on `CCCOc1ccc(NC(=O)C2CC(=O)N/C(=N/N=C(C)/C=C/c3ccc(N(C)C)cc3)S2)cc1` (configuration not stated) yielded an AC40 of 6 µM.
For `COc1ccc(C(=O)Nc2cc3c4c(c2)CC(=O)N4CCC3)c(OC)c1`, the AC40 was 5.13 µM.
With `COc1cc2c(cc1OC)C(=Cc1ccc(N(C)C)cc1)C=C2` the AC40 was 2.44 µM.
Compound `O=c1cc(-c2ccccc2Cl)oc2cc(O)cc(O)c12` has an AC40 of 12 µM.
`CCC(=O)c1ccc(N2CCC(C)CC2)c(F)c1` was tested, and the AC40 was 2.04 µM.
Compound `O=C(c1csc(Nc2ccccc2Cl)n1)N1CCCC1` has an AC40 of 1.07 µM.
`COc1ccc(CNC(=O)COc2ccccc2C(=O)c2cnn(-c3ccccc3)c2)cc1OC` showed an AC40 of 0.642 µM.
Work on `COc1cccc(C(=O)Nc2ccc(Cl)c(C(F)(F)F)c2)c1` yielded an AC40 of 5.59 µM.
`O=C1C(=C2CCc3ccccc32)Cc2ccccc21` gave an AC40 of 0.363 µM.
Work on `CN(C)c1ccc(-c2csc(C(O)c3ccccc3)n2)cc1` (configuration not stated) yielded an AC40 of 0.311 µM.
For `Nc1ccc(C(=O)OCc2nc3ccccc3[nH]2)cc1`, the AC40 was 19.1 µM.
`COc1ccc(Cl)cc1C(=O)NNC(=O)c1cccs1` gave an AC40 of 4.75 µM.
With `CCCC(=O)Nc1sc2c(c1C#N)CCCCC2` the AC40 was 2.39 µM.
In the case of `COc1ccc(/C=C/C(=O)Oc2cccc(/C=N/NC(=O)Cc3ccc(Br)cc3)c2)cc1`, the AC40 is reported as 4.57 µM.
`Cc1ccc(NC(=O)CN(C)S(=O)(=O)c2cccs2)cc1C` showed an AC40 of 2.98 µM.
With `Cc1cccc(-c2noc(Cc3ccccc3)n2)c1` the AC40 was 2.87 µM.
In the case of `C=CCN(C(=O)CC(NC(C)=O)c1ccccc1)c1nc(-c2ccc(S(C)(=O)=O)cc2)cs1` (configuration not stated), the AC40 is reported as 0.992 µM.
In the case of `COc1cccc(-c2cc(C(=O)NC3CCCCC3)no2)c1`, the AC40 is reported as 1.71 µM.
With `COc1ccccc1NC(=O)Nc1nc(CC(=O)Nc2ccc(N(C)C)cc2)cs1` the AC40 was 8.78 µM.
In the case of `O=C(c1cc2c(s1)-c1ccccc1OC2)N1CCCC1`, the AC40 is reported as 1.71 µM.
With `Cn1c(CSc2ccccc2)c(C#N)c2ccccc21` the AC40 was 6.77 µM.
`Cn1cnc(S(=O)(=O)N2CCCCC2c2cc(C(=O)Nc3ccc(F)c(Cl)c3)no2)c1` (configuration not stated) gave an AC40 of 8.38 µM.
Compound `Cc1sc2nc(-c3cccnc3)nc(Cl)c2c1-c1ccccc1` has an AC40 of 19.5 µM.
For `O=C(Nc1cccc(O)c1)c1ccc(Br)c(S(=O)(=O)N2CCCCC2)c1`, the AC40 was 17.6 µM.
`Clc1ccc(-c2nc3ccc(Cl)cn3c2Cc2ccsc2)cc1` gave an AC40 of 9.87 µM.
With `Cc1ccn2cc(C(=O)Nc3nnc(C)s3)nc2c1` the AC40 was 1.17 µM.
For `O=C1CC(/C=C/c2ccncc2)=Nc2ccccc2N1`, the AC40 was 6.57 µM.
Compound `Cn1c(/C(C#N)=C(\O)c2ccc(Cl)s2)nc2ccccc21` has an AC40 of 3.09 µM.
Compound `CCc1nnc(NC(=O)c2ccc3c(=O)n4c(nc3c2)CCC4)s1` has an AC40 of 2.51 µM.
With `O=C(Nc1ccc2ccccc2c1)c1cccc2ccccc12` the AC40 was 0.829 µM.
`Cc1cccc(NC(=O)c2cc(-c3cc(Cl)ccc3O)n[nH]2)c1` gave an AC40 of 2.08 µM.
Compound `Cc1[nH]c2ccccc2c(=O)c1CN(C)Cc1ccccc1` has an AC40 of 10.4 µM.
`O=C(Nc1ccc(F)cc1)c1ccccc1` showed an AC40 of 7.36 µM.
`Fc1cccc(Cl)c1/C=N/Nc1ccccn1` gave an AC40 of 8.55 µM.
Compound `O=C(Nc1ccccn1)c1c(O)c2cccc3c2n(c1=O)CCC3` has an AC40 of 18.4 µM.
`N#CC(c1ccccc1O)N1N=C(c2ccccc2)CC1c1ccccc1` (configuration not stated) showed an AC40 of 1.43 µM.
In the case of `CC(=O)Nc1ccc(NC(=O)c2cccc(-c3cc4ccccc4oc3=O)c2)cc1`, the AC40 is reported as 9.75 µM.
Work on `CC1(C)C=Cc2cc(-c3coc4cc(O)cc(O)c4c3=O)cc(O)c2O1` yielded an AC40 of 4.93 µM.
In the case of `C/C(=N\NC(=O)c1cccs1)c1ccc2ccccc2c1`, the AC40 is reported as 12 µM.
For `COc1ccc(C(=O)NCCS(=O)(=O)NCCc2ccccc2)cc1`, the AC40 was 0.726 µM.
In the case of `NNC(=O)c1nc2ccccc2s1`, the AC40 is reported as 4.4 µM.
`Nc1ccc2c(c1)C(=O)c1ccc(N)cc1-2` was tested, and the AC40 was 0.55 µM.
Compound `COc1cccc(NC(=O)C(=O)NCCC2CCCCN2S(=O)(=O)c2ccccc2)c1` (configuration not stated) has an AC40 of 2.93 µM.
